# According to publication PMC10035947, “Development of novel anilinoquinazoline-based carboxylic acids as non-classical carbonic anhydrase IX and XII inhibitors” (Journal of Enzyme Inhibition and Medicinal Chemistry, 2023):
# How the values were obtained:
# hCA IX = biological target: T1, hCA IX (Homo sapiens, UniProt Q16790); experiment: stopped flow CO2 hydrase assay; format: biochemical; conditions: for Selectivity ratio II/IX: KI hCA II / KI hCA IX; for Ki: mean from 3 assays
# T1 construct: made in house
# How it was run: (§1)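 Recombinant enzymes assayed by stopped-flow CO2 hydration using 0.2 mM phenol red at 557 nm in 20 mM Hepes pH 7.5 with 20 mM Na2SO4, CO2 1.7–17 mM. Inhibitor and enzyme preincubated 15 min at room temperature.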
# hCA XII = biological target: T2, hCA XII (Homo sapiens, UniProt O43570); experiment: stopped flow CO2 hydrase assay; format: biochemical; conditions: for Selectivity ratio I/XII: KI hCA I / KI hCA XII; for Selectivity ratio II/XII: KI hCA II / KI hCA XII; for Ki: mean from 3 assays
# T2 construct: made in house
# How it was run: as §1
# CCRF-CEM = experiment: NCI SRB assay; format: cell-based, human; conditions: for GI%: 10 μM; for Growth Percent: 1.00E-5 Molar
# HOP-92 = experiment: NCI SRB assay; format: cell-based, human; conditions: for GI%: HOP-92, 10 μM; for Growth Percent: HOP-92, 1.00E-5 Molar
# NCI-H226 = experiment: NCI SRB assay; format: cell-based, human; conditions: for GI%: NCI-H226, 10 μM; for Growth Percent: NCI-H226, 1.00E-5 Molar
# NCI-H23 = experiment: NCI SRB assay; format: cell-based, human; conditions: for GI%: NCI-H23, 10 μM; for Growth Percent: NCI-H23, 1.00E-5 Molar
# NCI-H460 = experiment: NCI SRB assay; format: cell-based, human; conditions: for GI%: NCI-H460, 10 μM; for Growth Percent: NCI-H460, 1.00E-5 Molar
# NCI-H522 = experiment: NCI SRB assay; format: cell-based, human; conditions: for GI%: NCI-H522, 10 μM; for Growth Percent: NCI-H522, 1.00E-5 Molar
# HCT-116 = experiment: NCI SRB assay; format: cell-based, human; conditions: for GI%: HCT-116, 10 μM; for Growth Percent: HCT-116, 1.00E-5 Molar
# SW-620 = experiment: NCI SRB assay; format: cell-based, human; conditions: for GI%: SW-620, 10 μM; for Growth Percent: SW-620, 1.00E-5 Molar
# SF-295 = experiment: NCI SRB assay; format: cell-based, human; conditions: for GI%: SF-295, 10 μM; for Growth Percent: SF-295, 1.00E-5 Molar
# SNB-75 = experiment: NCI SRB assay; format: cell-based, human; conditions: for GI%: SNB-75, 10 μM; for Growth Percent: SNB-75, 1.00E-5 Molar
# LOX IMVI = experiment: NCI SRB assay; format: cell-based, human; conditions: for GI%: 10 μM; for Growth Percent: 1.00E-5 Molar
# M14 = experiment: NCI SRB assay; format: cell-based, human; conditions: for GI%: M14, 10 μM; for Growth Percent: M14, 1.00E-5 Molar
# UACC-257 = experiment: NCI SRB assay; format: cell-based, human; conditions: for GI%: UACC-257, 10 μM; for Growth Percent: UACC-257, 1.00E-5 Molar
# IGROV1 = experiment: NCI SRB assay; format: cell-based, human; conditions: for GI%: IGROV1, 10 μM; for Growth Percent: IGROV1, 1.00E-5 Molar
# OVCAR-3 = experiment: NCI SRB assay; format: cell-based, human; conditions: for GI%: OVCAR-3, 10 μM; for Growth Percent: OVCAR-3, 1.00E-5 Molar
# NCI/ADR-RES = experiment: NCI SRB assay; format: cell-based, human; conditions: for GI%: 10 μM; for Growth Percent: 1.00E-5 Molar
# ACHN = experiment: NCI SRB assay; format: cell-based, human; conditions: for GI%: 10 μM; for Growth Percent: 1.00E-5 Molar
# CAKI-1 = experiment: NCI SRB assay; format: cell-based, human; conditions: for GI%: CAKI-1, 10 μM; for Growth Percent: CAKI-1, 1.00E-5 Molar
# TK-10 = experiment: NCI SRB assay; format: cell-based, human; conditions: for Growth Percent: TK-10, 1.00E-5 Molar; for GI%: TK-10, 10 μM
# PC-3 = experiment: NCI SRB assay; format: cell-based, human; conditions: for GI%: PC-3, 10 μM; for Growth Percent: PC-3, 1.00E-5 Molar
# MCF7 = experiment: NCI SRB assay; format: cell-based, human; conditions: for GI%: MCF7, 10 μM; for Growth Percent: MCF7, 1.00E-5 Molar
# BT-549 = experiment: NCI SRB assay; format: cell-based, human; conditions: for GI%: BT-549, 10 μM; for Growth Percent: BT-549, 1.00E-5 Molar
# T-47D = experiment: NCI SRB assay; format: cell-based, human; conditions: for GI%: 10 μM; for Growth Percent: 1.00E-5 Molar
# MDA-MB-468 = experiment: NCI SRB assay; format: cell-based, human; conditions: for GI%: MDA-MB-468, 10 μM; for Growth Percent: MDA-MB-468, 1.00E-5 Molar
# [1] = system: 59 human cancer cell lines representing nine tumour subpanels; experiment: NCI SRB assay, panel and subpanel summaries; conditions: all cell lines; for Mean GI %: 10 μM; for Mean Growth Percent: 1.00E-5 Molar
# T2 sequence (O43570 25-354): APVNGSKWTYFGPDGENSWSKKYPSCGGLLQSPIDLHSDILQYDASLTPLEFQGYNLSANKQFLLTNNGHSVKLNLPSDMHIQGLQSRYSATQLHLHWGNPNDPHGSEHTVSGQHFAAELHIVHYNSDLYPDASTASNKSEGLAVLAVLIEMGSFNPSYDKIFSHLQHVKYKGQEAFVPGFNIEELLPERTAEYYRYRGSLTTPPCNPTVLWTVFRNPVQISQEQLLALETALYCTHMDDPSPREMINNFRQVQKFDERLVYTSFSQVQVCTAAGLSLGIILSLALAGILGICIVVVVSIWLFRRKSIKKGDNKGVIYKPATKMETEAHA
structure (smiles),measurement,setting,value
"COc1ccc(-c2nc(Nc3ccccc3C(=O)O)c3ccccc3n2)cc1 [6c, 2-((2–(4-Methoxyphenyl)quinazolin-4-yl)amino)benzoic acid]",Selectivity ratio II/IX,hCA IX,1.79
same,Ki,hCA IX,46.4 µM
same,Selectivity ratio I/XII,hCA XII,11.2
same,Selectivity ratio II/XII,hCA XII,9.34
same,Ki,hCA XII,8.9 µM
same,GI%,CCRF-CEM,58%
same,Growth Percent,CCRF-CEM,42.05%
same,GI%,HOP-92,78%
same,Growth Percent,HOP-92,21.82%
same,GI%,NCI-H226,47%
same,Growth Percent,NCI-H226,53.45%
same,GI%,NCI-H23,38%
same,Growth Percent,NCI-H23,62.10%
same,GI%,NCI-H460,89%
same,Growth Percent,NCI-H460,11.57%
same,GI%,NCI-H522,63%
same,Growth Percent,NCI-H522,37.29%
same,GI%,HCT-116,62%
same,Growth Percent,HCT-116,37.54%
same,GI%,SW-620,61%
same,Growth Percent,SW-620,39.05%
same,GI%,SF-295,60%
same,Growth Percent,SF-295,39.93%
same,GI%,SNB-75,68%
same,Growth Percent,SNB-75,32.48%
same,GI%,LOX IMVI,50%
same,Growth Percent,LOX IMVI,49.53%
same,GI%,M14,48%
same,Growth Percent,M14,52.09%
same,GI%,UACC-257,28%
same,Growth Percent,UACC-257,72.03%
same,GI%,IGROV1,21%
same,Growth Percent,IGROV1,78.77%
same,GI%,OVCAR-3,54%
same,Growth Percent,OVCAR-3,43.93%
same,GI%,NCI/ADR-RES,46%
same,Growth Percent,NCI/ADR-RES,54.40%
same,GI%,ACHN,54%
same,Growth Percent,ACHN,46.21%
same,GI%,CAKI-1,53%
same,Growth Percent,CAKI-1,46.89%
same,Growth Percent,TK-10,74.99%
same,GI%,PC-3,60%
same,Growth Percent,PC-3,40.04%
same,GI%,MCF7,49%
same,Growth Percent,MCF7,51.24%
same,GI%,BT-549,62%
same,Growth Percent,BT-549,37.53%
same,GI%,T-47D,71%
same,Growth Percent,T-47D,29.31%
same,GI%,MDA-MB-468,57%
same,Growth Percent,MDA-MB-468,42.97%
same,Mean GI %,[1],52%
same,Mean Growth Percent,[1],48.18%
"Cc1ccc(-c2nc(Nc3ccc(C(=O)O)cc3)c3ccccc3n2)cc1 [8b, 4-((2-(p-Tolyl)quinazolin-4-yl)amino)benzoic acid]",Selectivity ratio I/IX,hCA IX; KI hCA I / KI hCA IX,45.8
same,Selectivity ratio II/IX,hCA IX,2.44
same,Ki,hCA IX,1.6 µM
same,Selectivity ratio I/XII,hCA XII,174.3
same,Selectivity ratio II/XII,hCA XII,9.29
same,Ki,hCA XII,0.42 µM
same,GI%,CCRF-CEM,28%
same,Growth Percent,CCRF-CEM,71.96%
same,GI%,HOP-92,25%
same,Growth Percent,HOP-92,75.22%
same,GI%,NCI-H226,62%
same,Growth Percent,NCI-H226,37.77%
same,GI%,NCI-H23,– (Only GI% higher than 20% are shown)
same,Growth Percent,NCI-H23,87.14%
same,GI%,NCI-H460,– (Only GI% higher than 20% are shown)
same,Growth Percent,NCI-H460,82.06%
same,GI%,NCI-H522,– (Only GI% higher than 20% are shown)
same,Growth Percent,NCI-H522,91.02%
same,GI%,HCT-116,22%
same,Growth Percent,HCT-116,77.19%
same,GI%,SW-620,– (Only GI% higher than 20% are shown)
same,Growth Percent,SW-620,91.47%
same,GI%,SF-295,42%
same,Growth Percent,SF-295,57.85%
same,GI%,SNB-75,– (Only GI% higher than 20% are shown)
same,Growth Percent,SNB-75,95.80%
same,GI%,LOX IMVI,43%
same,Growth Percent,LOX IMVI,57.05%
same,GI%,M14,– (Only GI% higher than 20% are shown)
same,Growth Percent,M14,80.88%
same,GI%,UACC-257,– (Only GI% higher than 20% are shown)
same,Growth Percent,UACC-257,107.52%
same,GI%,IGROV1,– (Only GI% higher than 20% are shown)
same,Growth Percent,IGROV1,92.17%
same,GI%,OVCAR-3,20%
same,Growth Percent,OVCAR-3,79.51%
same,GI%,NCI/ADR-RES,24%
same,Growth Percent,NCI/ADR-RES,76.55%
same,GI%,ACHN,24%
same,Growth Percent,ACHN,75.90%
same,GI%,CAKI-1,– (Only GI% higher than 20% are shown)
same,Growth Percent,CAKI-1,88.42%
same,GI%,TK-10,– (Only GI% higher than 20% are shown)
same,Growth Percent,TK-10,113.38%
same,GI%,PC-3,23%
same,Growth Percent,PC-3,77.04%
same,GI%,MCF7,37%
same,Growth Percent,MCF7,63.19%
same,GI%,BT-549,41%
same,Growth Percent,BT-549,59.16%
same,GI%,T-47D,32%
same,Growth Percent,T-47D,68.59%
same,GI%,MDA-MB-468,– (Only GI% higher than 20% are shown)
same,Growth Percent,MDA-MB-468,108.74%
same,Mean GI %,[1],20%
same,Mean Growth Percent,[1],80.19%
"Cc1ccc(-c2nc(Nc3cccc(C(=O)O)c3)c3ccccc3n2)cc1 [7b, 3-((2-(p-Tolyl)quinazolin-4-yl)amino)benzoic acid]",Selectivity ratio II/IX,hCA IX,1.72
same,Ki,hCA IX,24.2 µM
same,Selectivity ratio I/XII,hCA XII,109.9
same,Selectivity ratio II/XII,hCA XII,45.82
same,Ki,hCA XII,0.91 µM
same,GI%,CCRF-CEM,21%
same,Growth Percent,CCRF-CEM,78.66%
same,GI%,HOP-92,29%
same,Growth Percent,HOP-92,71.46%
same,GI%,NCI-H226,25%
same,Growth Percent,NCI-H226,75.32%
same,GI%,NCI-H23,– (Only GI% higher than 20% are shown)
same,Growth Percent,NCI-H23,95.42%
same,GI%,NCI-H460,– (Only GI% higher than 20% are shown)
same,Growth Percent,NCI-H460,97.53%
same,GI%,NCI-H522,– (Only GI% higher than 20% are shown)
same,Growth Percent,NCI-H522,86.87%
same,GI%,HCT-116,26%
same,Growth Percent,HCT-116,74.42%
same,GI%,SW-620,– (Only GI% higher than 20% are shown)
same,Growth Percent,SW-620,94.08%
same,GI%,SF-295,34%
same,Growth Percent,SF-295,65.90%
same,GI%,SNB-75,– (Only GI% higher than 20% are shown)
same,Growth Percent,SNB-75,91.06%
same,GI%,LOX IMVI,– (Only GI% higher than 20% are shown)
same,Growth Percent,LOX IMVI,81.15%
same,GI%,M14,– (Only GI% higher than 20% are shown)
same,Growth Percent,M14,83.59%
same,GI%,UACC-257,– (Only GI% higher than 20% are shown)
same,Growth Percent,UACC-257,111.51%
same,GI%,IGROV1,– (Only GI% higher than 20% are shown)
same,Growth Percent,IGROV1,107.30%
same,GI%,OVCAR-3,– (Only GI% higher than 20% are shown)
same,Growth Percent,OVCAR-3,85.56%
same,GI%,NCI/ADR-RES,– (Only GI% higher than 20% are shown)
same,Growth Percent,NCI/ADR-RES,89.49%
same,GI%,ACHN,24%
same,Growth Percent,ACHN,76.34%
same,GI%,CAKI-1,– (Only GI% higher than 20% are shown)
same,Growth Percent,CAKI-1,82.90%
same,GI%,TK-10,– (Only GI% higher than 20% are shown)
same,Growth Percent,TK-10,115.15%
same,GI%,PC-3,– (Only GI% higher than 20% are shown)
same,Growth Percent,PC-3,80.52%
same,GI%,MCF7,– (Only GI% higher than 20% are shown)
same,Growth Percent,MCF7,85.28%
same,GI%,BT-549,– (Only GI% higher than 20% are shown)
same,Growth Percent,BT-549,101.46%
same,GI%,T-47D,– (Only GI% higher than 20% are shown)
same,Growth Percent,T-47D,83.81%
same,GI%,MDA-MB-468,– (Only GI% higher than 20% are shown)
same,Growth Percent,MDA-MB-468,116.40%
same,Mean GI %,[1],14%
same,Mean Growth Percent,[1],86.13%
